According to US10111875B2, “Pyrrolopyrimidine compounds and uses thereof” (HUTCHISON MEDIPHARMA LIMITED, priority 2010, dated 2018):
Where two headings read alike, the source gives them in different places.

Key:
[1] = tested on: IL-4-induced STAT6 phosphorylation, Ramos cells; assay: IL-4-induced STAT6 phosphorylation in Ramos cells; assay type: cell-based; details: Homo sapiens, IL-4 stimulation, read-out: pSTAT6 (IC50)
Method: For the determination of IL-4-induced STAT6 phosphorylation, Ramos cells (ATCC) are plated in 96 well plates at 1.0×10^4 cells per well 10% FBS RPMI-1640 and incubated at 37° C., 5% CO2 for 3 hours. Cells were incubated with compounds for 30 minutes prior to stimulation with interleukin-4 (10 ng/ml final) for an additional 30 minutes. Cells are then fixed in 2% paraformaldehyde for 45 minutes and incubated in ice-cold methanol for 30 minutes. After washing in PBS, cells are incubated with rabbit anti-phospho-STAT6 (Y641) (Cell Signaling Technologies, 1:1000 in antibody dilution solution) primary antibody overnight at 4° C. Goat anti-rabbit IgG Alexa 488 (Invitrogen, 1:1,000 dilution in PBS) secondary antibody is added for 90 minutes prior to PBS washes. Cells are counted following incubation in a 7.5 uM propidium iodide, 100 µg/ml RNaseA, PBS solution for 60 minutes in the dark. Plates are read on an Acumen X3 instrument (TPP Labtech).
(§1) Percent inhibition is calculated using the following formula: Inhibition (%)=100−((inhibitor treatment−cell)/(stimulator−cell))×100
(§2) where: Inhibitor treatment represents cell activation percentage of wells treated by both compound and stimulator (IL-6, IL-3 or IL-4); Cell represents the cell activation percentage of wells treated by neither compound nor stimulator (IL-6, IL-3 or IL-4). Stimulator represents the cell activation percentage of wells treated by stimulator (IL-6, IL-3 or IL-4) only.

[2] = tested on: IL-6-induced STAT3 phosphorylation, HepG2 cells; assay: IL-6-induced STAT3 phosphorylation in HepG2 cells; assay type: cell-based, human; details: IL-6 stimulation, read-out: pSTAT3 (IC50)
Method: For the determination of IL-6-induced STAT3 phosphorylation, HepG2 cells (SIBS) are seeded in 96 well plates at […] cells per well in Serum Free DMEM media overnight and incubated in the presence or absence of various concentrations of diluted compound for 30 min at 37° C., 5% CO2. Cells were stimulated by adding 10 ng/ml human recombinant IL-6 to each well for 15 minutes at 37° C., 5% CO2. Cells are then fixed in 2% paraformaldehyde for 45 minutes at room temperature and incubated in ice-cold methanol for 30 minutes. After washing in PBS, cells are incubated with rabbit anti-phospho-STAT3 (Y705) (Cell Signaling Technologies, 1:1000 in antibody dilution solution) primary antibody overnight at 4° C. Goat anti-rabbit IgG Alexa 488 (Invitrogen, 1:1,000 dilution in PBS) secondary antibody is added for 90 minutes prior to PBS washes. Cells are counted following incubation in a 7.5 uM propidium iodide, 100 μg/ml RNaseA, PBS solution for 60 minutes in the dark. Plates are read on an Acumen X3 instrument (TPP Labtech).
as §1, §2

[3] = tested on: IL-3-induced STAT5 phosphorylation, TF-1 cells; assay: IL-3-induced STAT5 phosphorylation in TF-1 cells; assay type: cell-based, human; details: IL-3 stimulation, read-out: pSTAT5 (IC50)
Method: For the determination of IL-3-induced STAT5 phosphorylation, TF-1 cells (ATCC) are plated in 96 well plates at 1×10^4 cells per well in 10% FBS RPMI-1640 media at 37° C., 5% CO2 for 3 hours. Cells were incubated in the presence or absence of various concentrations of diluted compound for 30 min at 37° C., 5% CO2. Cells were stimulated by adding 10 ng/ml human recombinant IL-3 to each well for 30 minutes at 37° C., 5% CO2. Cells are then fixed in 2% paraformaldehyde for 45 minutes at room temperature and incubated in ice-cold methanol for 30 minutes. After washing in PBS, cells are incubated with rabbit anti-phospho-STAT5 (Y694) (Cell Signaling Technologies, 1:1000 in antibody dilution solution) primary antibody overnight at 4° C. Goat anti-rabbit IgG Alexa 488 (Invitrogen, 1:1,000 dilution in PBS) secondary antibody is added for 90 minutes prior to PBS washes. Cells are counted following incubation in a 7.5 uM propidium iodide, 100 µg/ml RNaseA, PBS solution for 60 minutes in the dark. Plates are read on an Acumen X3 instrument (TPP Labtech).
as §1, §2

[4] = molecular target: Recombinant human JAK1 catalytic domain (Homo sapiens (Human), UniProt P23458); assay: JAK1 kinase assay (Z'-LYTE Tyr 6 Peptide); assay type: biochemical; details: read-out: inhibition percentage (IR %)
Sequence of Recombinant human JAK1 catalytic domain (P23458 875-1153): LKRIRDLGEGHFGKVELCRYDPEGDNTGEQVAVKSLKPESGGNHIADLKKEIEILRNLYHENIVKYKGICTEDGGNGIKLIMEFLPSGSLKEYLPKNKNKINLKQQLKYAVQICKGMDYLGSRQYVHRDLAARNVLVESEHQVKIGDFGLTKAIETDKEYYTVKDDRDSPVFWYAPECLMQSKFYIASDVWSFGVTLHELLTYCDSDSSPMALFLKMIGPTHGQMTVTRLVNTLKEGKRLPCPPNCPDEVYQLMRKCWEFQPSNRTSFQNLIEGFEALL
Method: JAK1/2/3 kinase assay are performed in vitro using Kit-Tyr 6 Peptide (Invitrogen, Cat. No. PV4122). TYK2 kinase assay are performed in vitro using Z′-LYTE™ Kinase Assay Kit-Tyr 3 Peptide (Invitrogen, Cat. No. PV3192). […] All compounds are initially tested at 8 different concentrations (1 μM down to 0.0003 μM) using a 1:3 serial dilution scheme.

[5] = JAK1 kinase assay, 0.3 uM concentration

| SMILES | IC50 [1] [nM] | IC50 ([2]; Homo sapiens) [nM] | IC50 ([3]; Homo sapiens) [nM] | inhibition at 0.3 µM [4, 5] [%] | inhibition at 0.3 µM [4] [%] | IC50 [2] [nM] | IC50 [3] [nM] |
| --- | --- | --- | --- | --- | --- | --- | --- |
| CNS(=O)(=O)N(C)[C@@H]1CCN(c2ncnc3[nH]ccc23)C1 [Compound 47] | 1150 | 824 | 1490 | 50 to 100 |  |  |  |
| CN(c1ccc(C#N)c(F)c1)[C@@H]1CCN(c2ncnc3[nH]ccc23)C1 [Compound 105] |  | 9 | 1680 | 50 to 100 |  |  |  |
| CN(c1ccc(C(=O)N[C@@H]2c3ccccc3C[C@H]2O)cc1F)[C@@H]1CCN(c2ncnc3[nH]ccc23)C1 [Compound 206] | 180 | 23.9 | 693 | 50 to 100 |  |  |  |
| CN(c1ccc(S(N)(=O)=O)cn1)[C@@H]1CCN(c2ncnc3[nH]ccc23)C1 [Compound 234] | 385 | 337 | 857 | 50 to 100 |  |  |  |
| CN(c1ncc(C#N)cn1)[C@@H]1CCN(c2ncnc3[nH]ccc23)C1 [Compound 142, (R)-2-((1-(7H-pyrrolo[2,3-d]pyrimidin-4-yl)pyrrolidin-3-yl)(methyl)amino)pyrimidine-5-carbonitrile] | 336 | 65 | 3070 |  | 20 to 50 |  |  |
| CN(c1ccc(C(=O)Nc2nccs2)cn1)[C@@H]1CCN(c2ncnc3[nH]ccc23)C1 [Compound 199] |  |  |  |  |  | 50 | 7550 |
